These results are taken from PMC9645260, “Small-molecule inhibitors of P-Rex guanine-nucleotide exchange factors” (Small GTPases, 2022).

One series relates to DOCK2. The arrangement: method as in PMID 22520755. The note with it: cited from earlier work.
Another series addresses T1, full-length P-Rex1 (Homo sapiens, UniProt Q8TCU6).
T1 construct: Full-length N-terminally EE-tagged P-Rex1, P-Rex2, the P-Rex1 DH and DHPH domains and the P-Rex2 DH domain were produced in Sf9 cells; made in house; host or cells: Sf9 cells (baculovirus)
Briefly: Liposome-based GEF activity assay, PIP3-stimulated full-length P-Rex1. It counts as biochemical. The note with it: 200 µM, pilot experiments, EE-Rac2 substrate. From the text:
All small GTPases and GEFs used were human recombinant proteins. EE-Rac1, EE-Rac2, GST-Cdc42 or GST-RhoA were expressed in Sf9 cells by baculoviral transduction and purified using their epitope tag in their post-translationally prenylated form using Triton X-114 phase separation, essentially as previously described. Briefly, frozen pellets from a 1 litre culture of Sf9 cells transduced with high-titre baculovirus expressing the small GTPase were resuspended in ice-cold Sf9-cell lysis buffer 1 (1x PBS, 40 mM HEPES pH 7.5 at RT, 5 mM MgCl2, 10 mM EGTA, 300 µM GDP, 1 mM DTT, 200 µM PMSF, 20 μg/ml each of leupeptin, pepstatin A, aprotinin and antipain) and lysed by sonication. Triton X-114 was added (to 1% final concentration), and samples were ultracentrifuged at 118,000 × g for 50 min at 4°C. The supernatant was warmed at 37°C until cloudy (30–60 seconds) and centrifuged at 1300 × g for 2 min at 37°C. The upper phase containing non-lipid modified GTPase was discarded and replaced with ice-cold Sf9-cell lysis buffer. The warming/centrifugation steps were repeated twice and lipid-modified GTPase resuspended in ice-cold Sf9-cell lysis buffer 1 supplemented with Triton X-100 (1% final concentration), followed by ultracentrifugation at 118,000 × g for 50 min at 4°C. For EE-tagged GTPases, supernatants were incubated with anti-EE antibody covalently coupled to protein G-Sepharose beads (anti-EE beads, Onyx Pharmaceuticals) and incubated with end-over-end rotation for 90 min on ice. Beads were washed 3 times in wash buffer (PBS, 5 mM MgCl2, 1 mM DTT, 10 μM GDP, 1 mM EGTA, 0.2% Triton X-100) and 5x in elution buffer (40 mM HEPES pH 7.5, 150 mM NaCl, 5 mM MgCl2, 1 mM EGTA, 1 mM DTT, 10 µM GDP). Protein was eluted by three incubations with elution buffer containing peptide Ac-EEYMPME (Activotec, Comberton, UK) and cholate (first 1%, then twice 0.5%) for 20 min on ice. For GST-tagged GTPases, supernatants were incubated with glutathione Sepharose beads and were eluted with glutathione in the same manner. Proteins were concentrated in a YM-10 Centricon (Millipore) at 5000 × g, 4°C. Protein concentration and purity was determined by coomassie staining of SDS-PAGE gels. For use in the mant-GTP assay, EE-Rac 1 was expressed in BL21 (DE3) bacteria (NEB, C25271), by induction with 0.5 mM IPTG overnight at 18°C. Bacterial pellets from 500 ml cultures were resuspended in 20 ml bacterial lysis buffer (40 mM Hepes, pH 7.5 at 4°C, 150 mM NaCl, 1% Triton X-100, 5 mM MgCl2, 1 mM DTT, 300 μM GDP, 200 µM PMSF, and 20 μg/ml each of leupeptin, pepstatin A, aprotinin and antipain) and were lysed by sonication. 5 μg/ml DNAse and 5 μg/ml RNAse were added and the lysate incubated on ice for 10 min. […]

For a further series, the system named is HEK-293 cells. Briefly: Cell cycle stages by propidium iodide flow cytometry. The series is classed as cell-based. The settings on record: 24 h treatment, 10 µM. How it is done: Human embryonic kidney 293 (HEK-293) cells were grown at 37°C in a humidified 5% CO2 atmosphere in Dulbecco’s modified Eagle medium (DMEM, Gibco) supplemented with 10% foetal bovine serum (FBS), 100 units/ml penicillin and 100 µg/ml streptomycin. Cells were passaged by tryptic digest 1:4 approximately every 2 days. To measure cell cycle stages, 2 ml HEK293 cells were plated per well of a 6-well dish (Thermo Scientific, Nunc) at 10^5 cells/ml. After 24 h, the medium was replaced with fresh medium containing various concentrations of PREX-in1, as indicated, or 10 μM NSC23766, or vehicle control (0.1% DMSO), and cells were incubated for a further 24 h. The medium was removed but kept aside to recover any detached cells. Wells were washed with PBS, and cells recovered by trypsinization. Cell suspensions were pooled with the culture supernatant and centrifuged at 433 × g for 5 min at RT. Cells were washed in PBS, resuspended in ice-cold 70% ethanol/PBS, and incubated for 30 min at 4°C for fixation and permeabilization. Cells were washed once more in PBS, then stained with 50 µg/ml propidium iodide in PBS containing 100 µg/ml RNase for 30 min at 37°C. Cells were analysed by flow cytometry for the intensity of propidium iodide staining using a FACSCalibur flow cytometer. 10,000 cells were analysed per sample. Data analysis was done using FloJo software.

For a further series, the system named is Tiam1. The arrangement: method as in PMID 15128949. The settings on record: cited from earlier work.
The next series relates to TrioN. Details: method as in PMID 15128949. The note with it: cited from earlier work.
Series [1] has as its system Rac-dependent cell responses. The arrangement: method as in PMID 22383527. The note with it: lamellipodia formation and migration; cited from earlier work.
Another series concerns the target T2, P-Rex1 DHPH domain (Homo sapiens, UniProt Q8TCU6).
T2 construct: 100 nM EE-P-Rex1 DHPH domains (PREX-in1, compounds 2–10 and 30–128); made in house; host or cells: Sf9 cells (baculovirus)
Briefly: Mant-GTP GEF activity assay. It counts as biochemical. The settings on record: 10 µM. How it is done:
The mant-GTP GEF activity assay measures the binding of fluorescent 2’/3’-O-(N-Methyl-anthraniloyl)-guanosine-5’-triphosphate (mant)-GTP to Rac, making use of the spectroscopic differences between bound and free mant-GTP. P-Rex1 DHPH domain protein was diluted to 375 nM in exchange buffer (20 mM Tris, pH 7.5 RT, 50 mM NaCl, 200 mM KCl, 4 mM MgCl2, 50 μg/ml fatty-acid-free BSA). The inhibitors PREX-in1 or EHop-016 were diluted to various concentrations in exchange buffer containing 15% DMSO. 4.4 µl P-Rex1 DHPH domain protein were incubated with 1.1 µl PREX-in1 or EHop-016 for 30 min at 30°C, or were mock treated with 1.1 µl vehicle (15% DMSO). 5 μl of the P-Rex1 DHPH / inhibitor mix was then added to 10 µl of a 1.5x reaction mix containing 225 nM bacteria-derived EE-Rac1, 7.5 µM mant-GTP and 15 µM GTP in exchange buffer in a 96-well plate. Final assay concentrations were 150 nM EE-Rac1, 100 nM P-Rex1 DHPH domain, 5 μM mant-GTP, 10 µM GTP, […] fatty-acid-free BSA, 1% DMSO, and the indicated concentrations of inhibitor. Mant-GTP fluorescence was measured in real time in a PHERAstar 384-well fluorescence plate reader at 25°C for 40 min using 360 nm excitation and 440 nm emission.

T1 sequence (Q8TCU6 whole entry, the tested form may be a part): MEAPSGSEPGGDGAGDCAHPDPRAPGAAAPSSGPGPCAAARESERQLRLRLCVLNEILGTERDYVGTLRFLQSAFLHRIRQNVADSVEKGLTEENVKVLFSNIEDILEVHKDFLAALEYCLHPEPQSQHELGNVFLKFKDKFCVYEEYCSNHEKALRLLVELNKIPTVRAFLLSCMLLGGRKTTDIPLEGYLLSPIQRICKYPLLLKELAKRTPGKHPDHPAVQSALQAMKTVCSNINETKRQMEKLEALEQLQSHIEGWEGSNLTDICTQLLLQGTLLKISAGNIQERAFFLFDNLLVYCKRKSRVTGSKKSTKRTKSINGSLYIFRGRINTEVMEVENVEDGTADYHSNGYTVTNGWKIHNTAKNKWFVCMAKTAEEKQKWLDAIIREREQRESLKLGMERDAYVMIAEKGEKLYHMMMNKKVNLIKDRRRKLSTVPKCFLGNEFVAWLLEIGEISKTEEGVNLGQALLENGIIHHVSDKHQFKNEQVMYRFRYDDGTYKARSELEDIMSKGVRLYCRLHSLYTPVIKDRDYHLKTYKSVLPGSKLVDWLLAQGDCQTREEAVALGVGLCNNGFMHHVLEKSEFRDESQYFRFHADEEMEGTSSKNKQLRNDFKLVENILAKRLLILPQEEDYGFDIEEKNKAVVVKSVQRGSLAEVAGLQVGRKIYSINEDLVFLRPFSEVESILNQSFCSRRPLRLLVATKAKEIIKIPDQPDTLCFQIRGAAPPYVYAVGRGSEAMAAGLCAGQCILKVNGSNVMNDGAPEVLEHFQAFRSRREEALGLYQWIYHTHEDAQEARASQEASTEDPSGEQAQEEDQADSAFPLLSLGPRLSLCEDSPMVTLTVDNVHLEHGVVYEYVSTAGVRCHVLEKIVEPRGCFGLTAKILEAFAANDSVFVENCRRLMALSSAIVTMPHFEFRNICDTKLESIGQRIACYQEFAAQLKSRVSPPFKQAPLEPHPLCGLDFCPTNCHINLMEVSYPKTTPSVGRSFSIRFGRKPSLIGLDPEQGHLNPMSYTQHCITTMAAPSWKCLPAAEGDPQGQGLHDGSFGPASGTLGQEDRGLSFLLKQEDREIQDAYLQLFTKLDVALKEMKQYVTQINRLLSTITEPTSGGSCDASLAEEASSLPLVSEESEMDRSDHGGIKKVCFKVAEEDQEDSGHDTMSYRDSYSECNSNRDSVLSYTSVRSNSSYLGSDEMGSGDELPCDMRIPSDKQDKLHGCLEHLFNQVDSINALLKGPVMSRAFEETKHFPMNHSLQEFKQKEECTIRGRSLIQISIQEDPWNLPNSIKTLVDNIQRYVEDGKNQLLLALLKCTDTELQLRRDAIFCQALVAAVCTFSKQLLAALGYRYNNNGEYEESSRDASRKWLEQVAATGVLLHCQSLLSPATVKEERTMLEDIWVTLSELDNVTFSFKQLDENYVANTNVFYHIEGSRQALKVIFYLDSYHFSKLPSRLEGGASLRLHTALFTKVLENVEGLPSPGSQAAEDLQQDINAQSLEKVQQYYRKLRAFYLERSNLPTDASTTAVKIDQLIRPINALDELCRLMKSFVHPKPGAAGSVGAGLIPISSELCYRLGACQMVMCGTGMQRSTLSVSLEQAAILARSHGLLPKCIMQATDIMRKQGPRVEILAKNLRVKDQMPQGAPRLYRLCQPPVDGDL
T2 sequence (Q8TCU6 49-392 limits assumed): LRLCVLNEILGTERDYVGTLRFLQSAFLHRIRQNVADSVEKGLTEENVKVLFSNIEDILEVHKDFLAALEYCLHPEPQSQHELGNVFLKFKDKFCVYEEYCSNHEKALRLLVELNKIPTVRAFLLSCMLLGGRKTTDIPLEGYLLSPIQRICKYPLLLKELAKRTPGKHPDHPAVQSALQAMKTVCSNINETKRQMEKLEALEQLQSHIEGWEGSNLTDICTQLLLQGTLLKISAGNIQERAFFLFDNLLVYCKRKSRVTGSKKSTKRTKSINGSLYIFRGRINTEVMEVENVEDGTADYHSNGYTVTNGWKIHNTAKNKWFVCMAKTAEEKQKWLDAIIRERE

For the molecule `O=C1NN(c2ccccc2)C(=O)/C1=C/C=C/c1ccccc1Cl` [CPYPP], the IC50 with DOCK2 is 22.8 µM.
`CCN(CC)CCCC(C)Nc1nc(C)cc(Nc2ccc3nc(C)cc(N)c3c2)n1` (stereo not shown) [NSC23766, reference compound]: the “effect on PIP3-stimulated Rac-GEF activity of full-length P-Rex1” value at full-length P-Rex1 was “did not appear to inhibit”. Besides, the “cell death (sub-G1 phase)” value with HEK-293 cells was “caused cell death to a similar extent”. Further, the IC50 in the series on Tiam1 and in the series with TrioN was around 50 µM throughout.
Turning to `CCn1c2ccccc2c2cc(Nc3ccnc(NCCCN4CCOCC4)n3)ccc21` [EHop-016, reference compound], the “IC50 for blocking Rac-dependent cell responses” value in series [1] is reported as “low micromolar”. Also, the “effect on P-Rex1 DHPH-dependent mant-GTP loading of Rac1” value at P-Rex1 DHPH domain is given as “did not affect”.

As usually defined, the IC50 is the point on the concentration scale where inhibition reaches its midpoint.
